Patent US20140371305A1, “Mupirocin Antibiotic Composition” (PROFESSIONAL COMPOUNDING CENTERS OF AMERICA, priority 2013, published 2014)

Experiments:
[1] = test system: Methicillin Resistant Staphylococcus aureus; assay: Minimum inhibitory concentration (MIC) test; assay type: cell-based; details: mupirocin combined with micronized poloxamer composition 202 (poloxamer 188 and poloxamer 407)
Procedure: (§1) “Minimum Inhibitory Concentration (MIC)” may refer to the lowest concentration of an antimicrobial that may inhibit the visible growth of a microorganism after overnight incubation.
(§2) Moreover, micronized poloxamer composition 202 may enhance mupirocin's properties by lowering the minimum inhibitory concentration (MIC) to about […]. The MIC was tested against microorganisms such as Pseudomonas aeruginosa, and Methicillin Resistant Staphylococcus aureus, among others.

Pseudomonas aeruginosa = assay: Minimum inhibitory concentration (MIC) test; assay type: cell-based; details: mupirocin combined with micronized poloxamer composition 202 (poloxamer 188 and poloxamer 407)
Procedure: as §1, §2

minimum inhibitory concentration (MIC) [1]: about 1.7 g
minimum inhibitory concentration (MIC) (Pseudomonas aeruginosa): about 1.7 g
Structure (SMILES): C/C(=C\C(=O)OCCCCCCCCC(=O)O)C[C@@H]1OC[C@H](C[C@@H]2O[C@H]2[C@@H](C)[C@H](C)O)[C@@H](O)[C@H]1O [mupirocin]
